Test results from ChEMBL document CHEMBL1201862, “PubChem BioAssay data set” (2004).
Values belong to the molecule of their own block, whether it stands above or below them. Active and inactive are the calls of the source.

Tests used:
[1] = blockers of bursicon-stimulated LGR2 cAMP reporter – cell-based, HEK293, CRE-luciferase reporter, cherry pick, set 2, dose response (AID 743343); assay type: functional;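 also: transfected cells were stimulated with diluted bursicon conditioned medium after compound addition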
[2] = toxicity toward HepG2 liver cells – cell-based, plate reader, cherry-pick, antagonist series, cytotoxicity control, dose response (AID 743416); assay type: functional
HEK293 = test: EBV LMP1 TES2 canonical NF-kB signalling blockers – cell-based, HEK293, luciferase, cherry-pick, dose response (AID 588343); assay type: functional; settings: Homo sapiens
[3] = blockade of melanocortin 4 receptor signaling – cell-based, plate reader, cherry pick, counter-screen for LGR2 antagonist project, dose response (AID 743444); assay type: functional;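 also: transfected HEK 293 cells stimulated with alpha-MSH peptide; potency of inhibitors of the alpha-MSH evoked signal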
Prothrombin = Prothrombin (Homo sapiens, UniProt P00734); test: Thrombin 1536 HTS Dose Response Confirmation. [Related pubchem assays: 1046 (Thrombin 1536 HTS; hits were confirmed in this assay)]; assay type: functional
[4] = A549 cell cytotoxicity, dose response, cytotoxicity control, plate reader, cherry-pick, antagonist series (AID 743412); assay type: functional, cell-based
[5] = viability of uninfected HEp-2 cells – cell-based, HTS, cytotoxicity control for RSV inhibitor project, dose response (AID 2410); assay type: functional; settings: human respiratory syncytial virus
fMet-Leu-Phe receptor = molecular target: T1, fMet-Leu-Phe receptor (Homo sapiens, UniProt P21462); test: formyl peptide receptor binders – dose response (AID 519); assay type: functional
T1 sequence (P21462 whole entry): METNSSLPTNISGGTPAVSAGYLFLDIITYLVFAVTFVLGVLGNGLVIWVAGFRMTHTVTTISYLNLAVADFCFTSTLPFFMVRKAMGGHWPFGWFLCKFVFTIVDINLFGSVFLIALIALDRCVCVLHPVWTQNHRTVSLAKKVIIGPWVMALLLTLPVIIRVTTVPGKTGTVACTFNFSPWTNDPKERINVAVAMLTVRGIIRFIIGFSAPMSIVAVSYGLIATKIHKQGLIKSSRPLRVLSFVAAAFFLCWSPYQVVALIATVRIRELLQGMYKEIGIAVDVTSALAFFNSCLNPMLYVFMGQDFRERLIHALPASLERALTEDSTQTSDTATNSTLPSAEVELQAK

[6] = molecular target: Glyceraldehyde-3-phosphate dehydrogenase (Homo sapiens, UniProt P04406)
Bcl-2-related protein A1 [7] = molecular target: T2, Bcl-2-related protein A1 (Mus musculus, UniProt Q07440); test: small-molecule antagonists of Bfl-1/BH3 interaction – biochemical, TR-FRET, mouse Bfl-1, confirmation (AID 621);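 also: TR-FRET binding of GST-Bfl-1 to FITC-labelled Bid peptide via terbium antibody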
T2 sequence (Q07440 whole entry): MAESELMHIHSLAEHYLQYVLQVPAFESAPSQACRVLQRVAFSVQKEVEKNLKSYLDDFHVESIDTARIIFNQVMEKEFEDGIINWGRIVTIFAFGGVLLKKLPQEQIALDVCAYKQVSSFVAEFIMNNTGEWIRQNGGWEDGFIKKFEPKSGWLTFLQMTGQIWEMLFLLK

Bcl-2-related protein A1 [8] = molecular target: T2, Bcl-2-related protein A1; test: Bfl-1 binding inhibitors, SAR follow-up, biochemical, fluorescence polarization (AID 1070)
Cytochrome P450 2D6 = Cytochrome P450 2D6 (Homo sapiens, UniProt P10635); test: qHTS Assay for Inhibitors and Substrates of Cytochrome P450 2D6. [Related pubchem assays: 410 ]; assay type: ADME; settings: read-out: Potency
[9] = inhibition of ADAM10 peptide cleavage – biochemical, FRET peptide substrate, recombinant human ADAM10, selectivity assay for ADAM17 exosite inhibitor project, dose response (AID 743259);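 also: ADAM10 enzyme cleaving a FRET peptide substrate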
[10] = molecular target: Disintegrin and metalloproteinase domain-containing protein 17 (Homo sapiens, UniProt P78536); test: exosite inhibitors of ADAM17, dose response, biochemical (AID 743260)
Cytochrome P450 2C9 = Cytochrome P450 2C9 (Homo sapiens, UniProt P11712); settings: Potency
[11] = molecular target: Eukaryotic translation initiation factor 4E (Mus musculus, UniProt P63073); test: blockers of eIF4G binding by eIF4E – biochemical, TR-FRET, dose response (AID 855); assay type: functional;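 also: potency for disrupting eIF4E binding to eIF4GI seen as loss of FRET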
[12] = viability loss in Vero cells – cytotoxicity control for Vif-APOBEC3G degradation inhibitor project, dose response (AID 1117358); assay type: functional; settings: Vero
H9c2 = test: cells; assay type: functional, cell-based; settings: Rattus norvegicus, H9c2, Myocardium;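 also: confirmatory concentration-response retest of ultra-high-throughput screening hits for modulation of myocardial damage; cell death induced by hydrogen peroxide oxidative stress; compound pretreatment for 60 min then peroxide exposure for 2 h; potency is for protecting the cells against peroxide damage rather than for killing them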
cells [13] = assay type: functional, cell-based
[14] = molecular target: T3, Trace amine-associated receptor 1 (Homo sapiens, UniProt Q96RJ0); test: Counterscreen for agonists of the human trace amine associated receptor 1 (hTAAR1): Fluorescence-based cell-based high throughput dose response assay to identify hTAAR1 agonist that also desensitize TAAR1 receptor response.; assay type: functional
T3 sequence (Q96RJ0 whole entry): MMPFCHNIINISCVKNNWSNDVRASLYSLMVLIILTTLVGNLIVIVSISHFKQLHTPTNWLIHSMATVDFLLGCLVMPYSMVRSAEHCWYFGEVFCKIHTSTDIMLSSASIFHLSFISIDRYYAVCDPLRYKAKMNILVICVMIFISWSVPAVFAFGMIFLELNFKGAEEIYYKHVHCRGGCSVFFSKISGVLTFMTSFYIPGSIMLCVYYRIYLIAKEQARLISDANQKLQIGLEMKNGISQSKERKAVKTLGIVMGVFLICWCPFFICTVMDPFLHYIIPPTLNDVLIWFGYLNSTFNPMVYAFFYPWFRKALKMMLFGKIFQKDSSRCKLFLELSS

cells [15] = assay type: functional, cell-based; remark: listed apart in the source
[16] = molecular target: T3, Trace amine-associated receptor 1; test: Fluorescence-based cell-based high throughput dose response assay to identify agonists of the human trace amine associated receptor 1 (TAAR1).; assay type: functional
[17] = HEK-293T viability loss after treatment – luminescence, T-cell screen hits, cytotoxicity control for TCR NF-kB inhibitor project, dose response (AID 489026); assay type: functional, cell-based;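 also: cells exposed to compound about 14 hours before the viability readout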
[18] = OVCAR-3 cell viability loss – plate reader, dry powder samples, PAX8 inhibitor project, dose response (AID 743044); assay type: functional, cell-based
Paired box protein Pax-8 = Paired box protein Pax-8 (Homo sapiens, UniProt Q06710); test: PAX8 transcriptional activity inhibition in RMG-I – RMG-I cells, luciferase, cherry-pick, dose response (AID 687027); assay type: functional, cell-based;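 also: luciferase reporter driven by Pax8 target thyroperoxidase promoter measured by SteadyGlo luminescence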
[19] = IGROV1 cell killing – plate reader, dry powder samples, PAX8 inhibitor project, dose response (AID 743043); assay type: functional, cell-based; settings: IGROV-1

Chain of Cytochrome P450 2D6 (P10635 whole entry): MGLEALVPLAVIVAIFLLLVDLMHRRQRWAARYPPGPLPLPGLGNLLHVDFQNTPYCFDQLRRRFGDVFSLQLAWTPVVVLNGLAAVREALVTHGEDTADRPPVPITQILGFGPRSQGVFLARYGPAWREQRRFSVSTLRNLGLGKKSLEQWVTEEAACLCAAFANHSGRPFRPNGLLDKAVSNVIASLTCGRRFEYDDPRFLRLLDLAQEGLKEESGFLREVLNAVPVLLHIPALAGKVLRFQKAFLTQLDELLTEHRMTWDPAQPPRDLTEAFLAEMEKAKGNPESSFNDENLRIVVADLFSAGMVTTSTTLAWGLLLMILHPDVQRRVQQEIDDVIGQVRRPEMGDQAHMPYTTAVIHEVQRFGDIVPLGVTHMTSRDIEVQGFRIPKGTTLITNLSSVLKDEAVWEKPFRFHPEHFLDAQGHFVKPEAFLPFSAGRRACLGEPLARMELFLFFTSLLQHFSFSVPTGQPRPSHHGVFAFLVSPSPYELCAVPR
Chain of Cytochrome P450 2C9 (P11712 whole entry): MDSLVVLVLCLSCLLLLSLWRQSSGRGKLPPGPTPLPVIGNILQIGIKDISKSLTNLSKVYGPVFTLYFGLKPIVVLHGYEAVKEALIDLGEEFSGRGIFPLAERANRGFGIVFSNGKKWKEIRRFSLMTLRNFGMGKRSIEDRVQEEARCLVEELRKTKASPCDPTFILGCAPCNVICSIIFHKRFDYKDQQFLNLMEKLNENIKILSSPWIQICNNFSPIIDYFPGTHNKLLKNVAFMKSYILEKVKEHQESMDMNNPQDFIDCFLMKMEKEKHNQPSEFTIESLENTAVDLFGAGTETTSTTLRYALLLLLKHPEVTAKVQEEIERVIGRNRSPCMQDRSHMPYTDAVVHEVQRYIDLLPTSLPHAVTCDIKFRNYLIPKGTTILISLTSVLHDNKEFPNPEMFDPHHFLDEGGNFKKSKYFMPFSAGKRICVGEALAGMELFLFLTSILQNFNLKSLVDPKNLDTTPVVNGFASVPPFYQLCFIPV
Chain of Disintegrin and metalloproteinase domain-containing protein 17 (P78536 whole entry, the tested form may be a part): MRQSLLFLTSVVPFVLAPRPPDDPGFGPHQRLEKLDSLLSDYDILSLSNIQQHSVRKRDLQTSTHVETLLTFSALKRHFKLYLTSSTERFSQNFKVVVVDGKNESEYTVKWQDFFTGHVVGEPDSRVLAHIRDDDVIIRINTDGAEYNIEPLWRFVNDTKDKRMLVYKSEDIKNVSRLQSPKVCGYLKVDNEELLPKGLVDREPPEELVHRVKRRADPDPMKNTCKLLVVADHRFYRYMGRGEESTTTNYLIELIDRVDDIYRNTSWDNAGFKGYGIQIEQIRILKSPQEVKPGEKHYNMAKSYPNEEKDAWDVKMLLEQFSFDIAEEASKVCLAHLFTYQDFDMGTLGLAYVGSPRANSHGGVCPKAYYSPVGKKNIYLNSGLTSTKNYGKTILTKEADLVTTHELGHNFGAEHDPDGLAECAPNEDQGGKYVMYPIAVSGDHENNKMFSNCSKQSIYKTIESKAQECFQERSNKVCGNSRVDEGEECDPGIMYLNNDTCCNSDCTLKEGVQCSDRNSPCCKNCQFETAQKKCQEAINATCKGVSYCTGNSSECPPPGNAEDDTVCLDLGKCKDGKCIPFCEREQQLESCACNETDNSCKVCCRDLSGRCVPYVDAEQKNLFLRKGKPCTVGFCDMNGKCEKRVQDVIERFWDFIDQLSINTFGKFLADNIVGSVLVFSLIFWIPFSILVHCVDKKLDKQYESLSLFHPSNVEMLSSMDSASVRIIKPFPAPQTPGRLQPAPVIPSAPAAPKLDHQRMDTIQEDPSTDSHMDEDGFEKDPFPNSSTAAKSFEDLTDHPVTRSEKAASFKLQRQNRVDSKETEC
Chain of Glyceraldehyde-3-phosphate dehydrogenase (P04406 whole entry): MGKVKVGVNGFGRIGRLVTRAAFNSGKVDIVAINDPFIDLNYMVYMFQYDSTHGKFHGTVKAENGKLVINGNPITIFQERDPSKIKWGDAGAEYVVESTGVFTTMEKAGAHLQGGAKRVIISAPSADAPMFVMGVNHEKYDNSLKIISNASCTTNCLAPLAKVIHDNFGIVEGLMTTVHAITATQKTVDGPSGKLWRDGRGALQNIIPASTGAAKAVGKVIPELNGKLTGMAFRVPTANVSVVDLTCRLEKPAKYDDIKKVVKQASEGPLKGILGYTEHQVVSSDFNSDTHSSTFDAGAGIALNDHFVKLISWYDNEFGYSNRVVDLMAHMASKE
Chain of Eukaryotic translation initiation factor 4E (P63073 whole entry): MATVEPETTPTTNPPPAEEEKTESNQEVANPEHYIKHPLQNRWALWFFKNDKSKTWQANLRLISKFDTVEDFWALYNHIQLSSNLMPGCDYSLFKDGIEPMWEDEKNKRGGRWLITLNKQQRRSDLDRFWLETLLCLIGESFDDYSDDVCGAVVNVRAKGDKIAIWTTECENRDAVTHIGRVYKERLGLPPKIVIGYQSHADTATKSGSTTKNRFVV
Chain of Paired box protein Pax-8 (Q06710 whole entry): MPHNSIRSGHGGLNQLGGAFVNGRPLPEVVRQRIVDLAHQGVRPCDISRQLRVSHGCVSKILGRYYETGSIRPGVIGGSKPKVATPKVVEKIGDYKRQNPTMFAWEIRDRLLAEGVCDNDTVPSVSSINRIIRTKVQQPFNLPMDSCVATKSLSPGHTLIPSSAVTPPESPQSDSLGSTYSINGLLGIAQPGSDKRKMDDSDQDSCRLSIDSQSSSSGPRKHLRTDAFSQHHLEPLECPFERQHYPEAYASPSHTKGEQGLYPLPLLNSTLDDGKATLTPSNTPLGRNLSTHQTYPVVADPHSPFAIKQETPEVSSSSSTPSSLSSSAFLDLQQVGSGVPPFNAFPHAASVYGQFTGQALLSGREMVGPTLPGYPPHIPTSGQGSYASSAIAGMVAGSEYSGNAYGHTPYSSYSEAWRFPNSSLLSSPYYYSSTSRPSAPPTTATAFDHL

Structure (SMILES): O=C(Nc1nc2cc3c(cc2s1)OCO3)c1ccco1
AC50 [1]: 4.2 µM (active)
AC50 [2]: > 52 µM (inactive)
AC50 (HEK293): 1.57 µM (active)
AC50 [3]: 4.79 µM (active)
IC50 (Prothrombin): 9.57 µM (active)
AC50 [4]: > 52 µM (inactive)

Structure (SMILES): O=C1C(Cl)=C(N2CCOCC2)C(=O)N1c1cc(Cl)cc(Cl)c1
IC50 [6]: > 10 µM (inconclusive)
IC50 (Bcl-2-related protein A1 [7]): 1.33 µM (active)
IC50 (Bcl-2-related protein A1 [8]): 1.63 µM (active)

Structure (SMILES): C=C1C(=O)O[C@H]2C[C@@]3(C)CCCC(=C)[C@@H]3C[C@H]12
AC50 (Cytochrome P450 2C9): 39.8 µM (inconclusive)
AC50 (Cytochrome P450 2D6): 10 µM (inconclusive)

Structure (SMILES): CC(C)[C@@H](CC(=O)N[C@@H]1CCCC[C@H]1C(=O)N[C@H](CC(=O)N[C@@H](CCC(=O)O)CC(=O)O)Cc1ccccc1)NC(=O)C[C@H](Cc1ccccc1)NC(=O)[C@@H]1CNCC[C@H]1N
AC50 (Cytochrome P450 2C9): 6.31 µM (inconclusive)

Structure (SMILES): CN1C(=O)CSc2ccc(NC(=O)NCc3cccnc3)cc21
CC50 [12]: > 40 µM (active)

Structure (SMILES): C=CC1=C(C)C2=NC/1=C\C1=[N+]3[Zn-2][N+]4=C(/C=C5N=C(/C=C3/C(CCC(=O)O)=C1C)C(CCC(=O)O)=C\5C)C(C)=C(C=C)/C4=C/2
AC50 (Cytochrome P450 2C9): 39.8 µM (inconclusive)
AC50 (Cytochrome P450 2D6): 25.1 µM (inconclusive)

Structure (SMILES): O=C1C(Cl)=C(Cl)C(=O)N1c1ccc(C(F)(F)F)cc1
IC50 [6]: > 100 µM (not active)
IC50 (Bcl-2-related protein A1 [7]): 1.46 µM (active)
IC50 (Bcl-2-related protein A1 [8]): 0.999 µM (active)

Structure (SMILES): Cc1ccc(C(=O)OC2CCS(=O)(=O)c3sccc32)cc1 (configuration not stated)
CC50 [12]: 32.7 µM (active)

Structure (SMILES): O=c1c2ccccc2c(-c2ccccc2)nn1-c1cc(Cl)ccc1[N+](=O)[O-]
CC50 [12]: > 40 µM (active)

Structure (SMILES): COc1ccc2nc(O)c(-c3nnn(-c4ccc(F)cc4)n3)cc2c1
IC50 (Bcl-2-related protein A1 [7]): > 100 µM (not active)
IC50 (Bcl-2-related protein A1 [8]): > 100 µM (not active)
IC50 (H9c2): 37.1 µM (inactive)

Structure (SMILES): COc1cc(SC)ccc1C(=O)NCCOc1ccc(C)c(C)c1
IC50 [9]: 27.5 µM (inactive)
IC50 [10]: > 69.5 µM (inactive)

Structure (SMILES): O=C(Nc1ccccc1)Nc1ccncc1
IC50 (cells [13]): > 29.9 µM (inactive)
IC50 [14]: 7.05 µM (active)
EC50 (cells [15]): > 29.9 µM (inactive)
EC50 [16]: 1.02 µM (active)

Structure (SMILES): COc1ccc(-n2nnnc2-c2ccccc2)cc1
IC50 [17]: > 80 µM (inactive)
CC50 [12]: > 40 µM (active)

Structure (SMILES): CCCCN(Cc1ccccc1)S(=O)(=O)c1cc2c(cc1Br)CC(C)N2C(C)=O (configuration not stated)
AC50 [2]: 46 µM (active)
IC50 [9]: 12.6 µM (inactive)
AC50 [3]: 58.1 µM (active)
IC50 [10]: > 69.5 µM (inactive)
AC50 [4]: 28.8 µM (active)

Structure (SMILES): COc1cccc(S(=O)(=O)Nc2ccc3c(c2)[C@@H]2C[C@@H](CC(=O)NCc4ccc(Cl)cc4)O[C@@H](CO)[C@@H]2O3)c1
AC50 [18]: 25.9 µM (active)
AC50 (Paired box protein Pax-8): 3.36 µM (active)
AC50 [19]: 60.3 µM (active)

Structure (SMILES): NC(Cc1ccccc1)c1csc(Nc2ccc(C(=O)NCCO)cc2)n1 (configuration not stated)
IC50 (cells [13]): > 29.9 µM (inactive)
IC50 [14]: > 29.9 µM (inactive)
EC50 (cells [15]): > 29.9 µM (inactive)
EC50 [16]: 4.32 µM (active)

Structure (SMILES): CCCCCCCCN1C(=O)[C@@H](CC(=O)NCCc2ccccc2OC)C[C@@]2(C(=O)OC)C1=C[C@H](C1CCCC1)O[C@@H]2C
IC50 (cells [13]): > 29.9 µM (inactive)
IC50 [14]: 8.54 µM (active)
EC50 (cells [15]): > 29.9 µM (inactive)
EC50 [16]: 3.22 µM (active)

Structure (SMILES): Cc1cc(N/N=C/c2ccccc2O)nc(N2CCOCC2)n1
IC50 (cells [13]): > 29.9 µM (inactive)
IC50 [14]: 2.52 µM (active)
EC50 (cells [15]): > 29.9 µM (inactive)
EC50 [16]: > 29.9 µM (inactive)

More lines, main results first:

Ki (fMet-Leu-Phe receptor): > 66.7 µM (inactive)
Structure (SMILES): Cc1ccc(NC(=O)C2CCCN2S(=O)(=O)c2cccc3cccnc23)cc1F (configuration not stated)
CC50 [5]: 39.4 µM (active)

IC50 (Prothrombin): > 50 µM (not active)
Structure (SMILES): COc1cccc(CN(C)C(=O)CCc2nnc(-c3ccsc3)o2)c1

AC50 (Cytochrome P450 2D6): 20 µM (inconclusive)
Structure (SMILES): c1ccc(Nc2cc(-c3ccoc3)ncn2)cc1

IC50 (Prothrombin): 0.246 µM (active)
Structure (SMILES): COCC(=O)n1nc(-c2ccccc2)nc1NCc1ccccc1

IC50 [10]: > 69.5 µM (inactive)
Structure (SMILES): COc1ccc(NS(=O)(=O)c2cc(NC(=O)c3cccs3)ccc2N2CCCC2)cc1
IC50 [9]: > 69.5 µM (inactive)

IC50 [11]: 50 µM (inactive)
Structure (SMILES): O=C(c1ccccc1)N(Nc1ccccc1)c1ccccc1

Ki (fMet-Leu-Phe receptor): > 66.7 µM (inactive)
Structure (SMILES): O=C(C1=C(O)C(=O)N(c2ncccn2)C1c1ccc(Cl)cc1)c1ccco1 (configuration not stated)

IC50 (Bcl-2-related protein A1 [7]): > 100 µM (not active)
IC50 (Bcl-2-related protein A1 [8]): > 100 µM (not active)
Structure (SMILES): Clc1ccc(-n2nnc(-c3cccnc3)n2)cn1

IC50 [6]: > 100 µM (not active)
Structure (SMILES): O=C1C2CC=CCC2C(=O)N1c1nc(-c2ccco2)n[nH]1 (configuration not stated)

Ki (fMet-Leu-Phe receptor): > 66.7 µM (inactive)
Structure (SMILES): CC1Oc2ccccc2N(Cc2ccccc2Cl)C1=O (configuration not stated)

IC50 [10]: > 69.5 µM (inactive)
Structure (SMILES): O=C(C[n+]1ccccc1)Nc1nc2ccccc2s1
IC50 [9]: > 69.5 µM (inactive)

Ki (fMet-Leu-Phe receptor): > 66.7 µM (inactive)
Structure (SMILES): COc1ccc2c(=O)c(N3C(=O)c4ccccc4C3=O)c(C)oc2c1
